Data as given in ChEMBL document CHEMBL2434959, “Identification and characterization of novel indole based small molecules as anticancer agents through SIRT1 inhibition” (Eur J Med Chem, 2013).
Activity calls are given as the source filed them. The calls are words filed in the database; no cut-off is given here.

Key:
[1] = Lipophilicity, log P of the compound; assay type: physicochemical; details: octanol/water
[2] = tested on: MDA-MB-231; assay: Growth inhibition of human MDA-MB-231 cells at 10 uM after 24 hrs by MTT assay; assay type: functional; details: MDA-MB-231, 24 h, read-out: GI
[3] = tested on: LNCaP; assay: Growth inhibition of human LNCAP cells at 10 uM after 24 hrs by MTT assay; assay type: functional; details: read-out: GI
[4] = tested on: Rattus norvegicus; assay: Inhibition of testosterone propionate-induced prostate hyperplasia in Wistar rat assessed as retention of normal cell morphology at 5 mg/kg, ip co-administered with testosterone propionate for 14 days by hematoxylin/eosin staining method; assay type: functional, organism-based; parameters: dose 5 mg/kg
[5] = tested on: Rattus norvegicus; assay: Inhibition of testosterone propionate-induced prostate hyperplasia in Wistar rat assessed as reduction in histoarchitecture disruption at 5 mg/kg, ip co-administered with testosterone propionate for 14 days by hematoxylin/eosin staining method; assay type: functional, organism-based; parameters: dose 5 mg/kg; details: Prostate gland
[6] = tested on: Rattus norvegicus; assay: Inhibition of testosterone propionate-induced prostate hyperplasia in Wistar rat assessed as seminal vesicle weight at 5 mg/kg, ip co-administered with testosterone propionate for 14 days (reference value: 1.6071 +/- 0.0821 g); assay type: functional, Prostate gland; details: route intraperitoneal
[7] = tested on: Rattus norvegicus; assay: Inhibition of testosterone propionate-induced prostate hyperplasia in Wistar rat assessed as ratio of prostate weight to body weight at 5 mg/kg, ip co-administered with testosterone propionate for 14 days (reference value: 3.1634 +/- 0.1264 no unit); assay type: functional, Prostate gland; details: route intraperitoneal
[8] = tested on: Rattus norvegicus; assay: Inhibition of testosterone propionate-induced prostate hyperplasia in Wistar rat assessed as prostate weight at 5 mg/kg, ip co-administered with testosterone propionate for 14 days (reference value: 0.838 +/- 0.0293 g); assay type: functional, Prostate gland; details: route intraperitoneal
[9] = tested on: Rattus norvegicus; assay: Inhibition of testosterone propionate-induced prostate hyperplasia in Wistar rat assessed as reduction in SIRT1 mRNA level in prostate tissue at 10 mg/kg, ip co-administered with testosterone propionate for 14 days by RT-PCR analysis; assay type: functional, organism-based; parameters: dose 10 mg/kg; details: Prostate gland
[10] = tested on: Rattus norvegicus; assay: Inhibition of testosterone propionate-induced prostate hyperplasia in Wistar rat assessed as retention of normal cell morphology at 10 mg/kg, ip co-administered with testosterone propionate for 14 days by hematoxylin/eosin staining method; assay type: functional, organism-based; parameters: dose 10 mg/kg
[11] = tested on: Rattus norvegicus; assay: Inhibition of testosterone propionate-induced prostate hyperplasia in Wistar rat assessed as reduction in histoarchitecture disruption at 10 mg/kg, ip co-administered with testosterone propionate for 14 days by hematoxylin/eosin staining method; assay type: functional, organism-based; parameters: dose 10 mg/kg; details: Prostate gland
[12] = tested on: Rattus norvegicus; assay: Inhibition of testosterone propionate-induced prostate hyperplasia in Wistar rat at 10 mg/kg, ip co-administered with testosterone propionate for 14 days; assay type: functional; details: Prostate gland, 336 h, route intraperitoneal
[13] = tested on: Rattus norvegicus; assay: Inhibition of testosterone propionate-induced prostate hyperplasia in Wistar rat assessed as ratio of prostate weight to body weight at 10 mg/kg, ip co-administered with testosterone propionate for 14 days (reference value: 3.1634 +/- 0.1264 no unit); assay type: functional, Prostate gland; details: route intraperitoneal
[14] = tested on: Rattus norvegicus; assay: Inhibition of testosterone propionate-induced prostate hyperplasia in Wistar rat assessed as seminal vesicle weight at 10 mg/kg, ip co-administered with testosterone propionate for 14 days (reference value: 1.6071 +/- 0.0821 g); assay type: functional, Prostate gland; details: route intraperitoneal
[15] = tested on: Rattus norvegicus; assay: Inhibition of testosterone propionate-induced prostate hyperplasia in Wistar rat assessed as prostate weight at 10 mg/kg, ip co-administered with testosterone propionate for 14 days (reference value: 0.838 +/- 0.0293 g); assay type: functional, Prostate gland; details: route intraperitoneal
[16] = molecular target: T1, NAD-dependent protein deacetylase sirtuin-1 (Homo sapiens) (UniProt Q96EB6); assay: Inhibition of recombinant human SIRT1 using AMC-Arg-His-Lys-Lys(Ac) as substrate at 40 uM after 45 mins by fluorimetric assay
T1 sequence (whole entry): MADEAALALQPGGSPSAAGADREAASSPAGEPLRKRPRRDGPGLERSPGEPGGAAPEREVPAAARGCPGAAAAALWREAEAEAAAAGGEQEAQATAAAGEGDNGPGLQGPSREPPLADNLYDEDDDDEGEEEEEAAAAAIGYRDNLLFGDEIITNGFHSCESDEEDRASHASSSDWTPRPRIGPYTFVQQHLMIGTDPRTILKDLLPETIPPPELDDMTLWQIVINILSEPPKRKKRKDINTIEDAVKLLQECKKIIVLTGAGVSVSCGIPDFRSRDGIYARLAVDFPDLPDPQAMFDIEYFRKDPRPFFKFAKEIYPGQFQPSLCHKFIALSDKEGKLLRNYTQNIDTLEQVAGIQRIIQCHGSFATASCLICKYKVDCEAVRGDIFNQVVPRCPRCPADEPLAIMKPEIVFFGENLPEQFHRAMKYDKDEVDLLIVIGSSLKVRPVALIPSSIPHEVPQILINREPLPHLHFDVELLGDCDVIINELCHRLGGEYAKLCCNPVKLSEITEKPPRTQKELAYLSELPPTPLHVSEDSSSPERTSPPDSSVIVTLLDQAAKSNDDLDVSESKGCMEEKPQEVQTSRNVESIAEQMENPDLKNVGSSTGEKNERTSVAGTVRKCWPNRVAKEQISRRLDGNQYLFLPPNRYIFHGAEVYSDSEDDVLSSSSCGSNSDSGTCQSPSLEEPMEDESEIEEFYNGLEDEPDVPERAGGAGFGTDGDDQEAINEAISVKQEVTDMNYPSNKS

[17] = tested on: K562; assay: Growth inhibition of human K562 cells at 10 uM after 24 hrs by MTT assay; assay type: functional; details: K562, 24 h, read-out: GI

logP [1] | SMILES | inhibition of growth at 10 µM [2] [%] | other results
6.27 | COc1ccc(CNCc2c(-c3nnc(SC(C)C)n3-c3ccccc3)n(C)c3ccccc23)cc1 | > 50 | 
6.42 | COc1cccc(CNCc2c(-c3nnc(SC(C)C)n3-c3ccccc3)n(C)c3ccc(F)cc23)c1 | > 50 | 
6.18 | CC1CCCN(Cc2c(-c3nnc(SC(C)C)n3-c3ccccc3)n(C)c3ccc(F)cc23)C1 (stereo not given) | > 50 | 
6.12 | CC1CCN(Cc2c(-c3nnc(SC(C)C)n3-c3ccccc3)n(C)c3ccc(F)cc23)CC1 | > 50 | inhibition of growth at 10 µM [3]: > 50%
4.22 | CC(C)Sc1nnc(-c2c(CNc3cnccn3)c3ccccc3n2C)n1-c1ccccc1 |  | 
4.83 | CC(C)Sc1nnc(-c2c(CNCCN3CCCC3)c3ccccc3n2C)n1-c1ccccc1 |  | 
 | CC(C)(C)NC(=O)[C@H]1CC[C@H]2[C@@H]3CC[C@H]4NC(=O)C=C[C@]4(C)[C@H]3CC[C@]12C [FINASTERIDE] |  | inhibition [4]: Active; inhibition [5]: Active; Activity [6]: 0.9051 g; Ratio [7]: 0.002471; Activity [8]: 0.556 g
5.95 | CC(C)Sc1nnc(-c2c(CN3CCCCC3C)c3ccccc3n2C)n1-c1ccccc1 (stereo not given) |  | 
4.5 | CC(C)Sc1nnc(-c2c(CN3CCOCC3)c3ccccc3n2C)n1-c1ccccc1 |  | 
4.38 | CC(C)Sc1nnc(-c2c(CNCCCN3CCOCC3)c3cc(F)ccc3n2C)n1-c1ccccc1 |  | 
6.42 | COc1ccc(CNCc2c(-c3nnc(SC(C)C)n3-c3ccccc3)n(C)c3ccc(F)cc23)cc1 | > 50 | inhibition [9]: Active; inhibition [10]: Active; inhibition [11]: Active; inhibition in vivo at 10 mg/kg [12]: 70.5%; Ratio [13]: 0.002298; Activity [14]: 0.619 g; Activity [15]: 0.537 g; inhibition [16]: 70%; inhibition of growth at 10 µM [3]: > 50%
4.65 | CC(C)Sc1nnc(-c2c(CN3CCOCC3)c3cc(F)ccc3n2C)n1-c1ccccc1 |  | inhibition of growth at 10 µM [17]: 88%
4.12 | CC(C)Sc1nnc(-c2c(CNCCN3CCOCC3)c3ccccc3n2C)n1-c1ccccc1 |  | 
4.81 | CC(C)Sc1nnc(-c2c(CNC3CC3)c3ccccc3n2C)n1-c1ccccc1 |  | 
5.96 | CC1CCN(Cc2c(-c3nnc(SC(C)C)n3-c3ccccc3)n(C)c3ccccc23)CC1 |  | inhibition of growth at 10 µM [17]: 88%
5.96 | COc1cc(NCc2c(-c3nnc(SC(C)C)n3-c3ccccc3)n(C)c3ccc(F)cc23)cc(OC)c1OC |  | inhibition of growth at 10 µM [17]: > 50%
6.27 | COc1cccc(CNCc2c(-c3nnc(SC(C)C)n3-c3ccccc3)n(C)c3ccccc23)c1 | > 50 | 
4.99 | CC(C)Sc1nnc(-c2c(CNCCN3CCCC3)c3cc(F)ccc3n2C)n1-c1ccccc1 |  | 
4.36 | COCCNCc1c(-c2nnc(SC(C)C)n2-c2ccccc2)n(C)c2ccccc12 |  | 
5.4 | CC(C)Sc1nnc(-c2c(CNCC3CC3)c3cc(F)ccc3n2C)n1-c1ccccc1 | > 50 | inhibition of growth at 10 µM [17]: > 50%
4.22 | CC(C)Sc1nnc(-c2c(CNCCCN3CCOCC3)c3ccccc3n2C)n1-c1ccccc1 |  | 
4.52 | COCCNCc1c(-c2nnc(SC(C)C)n2-c2ccccc2)n(C)c2ccc(F)cc12 |  | inhibition of growth at 10 µM [3]: > 50%
4.28 | CC(C)Sc1nnc(-c2c(CNCCN3CCOCC3)c3cc(F)ccc3n2C)n1-c1ccccc1 |  | 
5.24 | CC(C)Sc1nnc(-c2c(CNCC3CC3)c3ccccc3n2C)n1-c1ccccc1 |  | inhibition of growth at 10 µM [17]: > 50%
4.97 | CC(C)Sc1nnc(-c2c(CNC3CC3)c3cc(F)ccc3n2C)n1-c1ccccc1 | > 50 | inhibition of growth at 10 µM [17]: > 50%
5.94 | CC(C)Sc1nnc(-c2c(CNc3nc4ccccc4[nH]3)c3ccccc3n2C)n1-c1ccccc1 |  | 
6.03 | CC1CCCN(Cc2c(-c3nnc(SC(C)C)n3-c3ccccc3)n(C)c3ccccc23)C1 (stereo not given) | > 50 | 
5.16 | CC(C)Sc1nnc(-c2c(CN3CCC(N4CCCC4)CC3)c3ccccc3n2C)n1-c1ccccc1 |  | 
5.8 | COc1cc(NCc2c(-c3nnc(SC(C)C)n3-c3ccccc3)n(C)c3ccccc23)cc(OC)c1OC |  | 
5.13 | CC1CN(Cc2c(-c3nnc(SC(C)C)n3-c3ccccc3)n(C)c3ccccc23)CC(C)O1 (stereo not given) |  | 
